Assay results reported in patent US20250179022A1, “COMPOUND USED AS TYK2 INHIBITOR, PREPARATION METHOD THEREFOR, AND PHARMACEUTICAL USE THEREOF” (SHANGHAI ZHIGEN PHARMACEUTICAL & TECHNOLOGY CO. LTD., priority 2022, published 2025).
Values after ≈ are worked out from the molar mass of the structure shown.

Experiments:
[1] = In vivo pharmacokinetic experiments in Beagle dogs (oral); conditions: 2 mg/kg
Experimental: Experimental Methods: Healthy male Beagle dogs were randomly grouped into 3 […] in each group, and were given the test compounds orally. Before the gavage experiment, the dogs were fasted for 12 h, drank water freely, and were uniformly fed for 4 h after the administration of the drug. 0.083, 0.25, 0.5, 1.0, 2.0, 4.0, 6.0, 8.0, 10 and 24 h after administration; about 600 μL of blood was collected from the forelimb or hindlimb at the above set time points and placed in EDTA-K2 tubes, and the whole blood was collected and stored temporarily in an ice-water bath, and then centrifuged at least 3500 rpm for 10 min within 30 min, and the plasma was separated and frozen in a −70° C. refrigerator for testing.

[2] = In vivo pharmacokinetic experiment in rats (oral); design: species or system SD rats; conditions: 5 mg/kg
Experimental: Experimental method: Healthy male SD rats were randomly grouped into 3 rats in each group and given the test compound orally. The rats were fasted for 12 h before the gavage experiment, and drank water freely, and were fed uniformly for 4 h after the administration of the compounds. Before (0 h) and 0.25, 0.5, 1.0, 2.0, 4.0, 6.0, 8.0 and 24 h after the administration of the test compounds, 0.2 mL of blood was collected from the jugular vein at the above set time points and placed in EDTA-K2 tubes, and the whole blood was collected and stored temporarily in an ice-water bath, and then centrifuged at 11,000 rpm for 5 min within 30 min, the plasma was separated, and frozen at −70° C. in a refrigerator for testing.

[3] = Solubility in water (at pH=7); assay type: physicochemical
Source text: Test Example 6: Solubility of the Compounds of the Invention in Water (at pH=7)

- AUC [1]: 6684 ngh/mL
- F [1]: 117%
- Cmax ([1]; male, dog, plasma): 485 ng/mL
- MRT ([1]; male, dog, plasma): 10.7 h
- half-life ([1]; male, dog, plasma): 7.26 h
- AUC [2]: 2644 ngh/mL
- F [2]: 103.8%
- Cmax ([2]; male, SD, rat, plasma): 651 ng/mL
- MRT ([2]; male, SD, rat, plasma): 3.54 h
- half-life ([2]; male, SD, rat, plasma): 2.48 h
- Solubility [3]: 22 µg/mL (≈ 48.3 µM)
SMILES: [2H]C([2H])([2H])NC(=O)c1nnc(NC(=O)C2CC2)cc1Nc1nc(N)c(Cl)cc1[S@@](C)(=O)=NC [Example 28]
